Test results as given in US11596692B1 (Incyte Corporation, priority 2018, dated 2023).
Read-outs that look alike come from different tables or passages of the source.

Test system: IRF3
Test: IRF3 activation assay in THP-1 Dual cells
Format: cell-based
Conditions: Homo sapiens, read-out: THP1 IRF3 EC50
Description: THP-1 Dual Cells (Invivogen) were maintained in RPMI1640 medium with addition of 10% FBS, 100 μg/ml zeocin, 10 μg/ml blasticidin. Cells were added in a 96-well flat bottom assay plate at 100,000 per well in 100 μL complete RPMI medium. Test compounds were prepared by serial dilution in complete RPMI medium and 100 μL test compounds were transferred to each corresponding well. The assay plate was incubated at 37° C., 5% CO2 for 24 hours. After the overnight incubation, 20 μL of the culture supernatants were collected, followed by addition of 180 μL of QUANTI-Blue (Invivogen) to assess IRF3 activity. The amount of IRF3 activation was assessed by reading the absorbance at 620-655 nm with a microplate reader 2 hours later. The culture supernatant from the untreated THP-1 cells was used as the negative control. EC50 determination was performed by fitting the curve of percent control activity versus the log of the compound concentration using the GraphPad Prism 6.0 software.

SMILES | EC50 (THP-1, Table 4A) [nM] | EC50 (THP-1, Table 4B) [nM] | EC50 (THP-1, Table 4C) [nM]
CCn1nc(C)cc1C(=O)Nc1nc2cc(C(N)=O)cc(OCCCN3CCOCC3)c2n1C/C=C/Cn1c2nc(-c3cc(C)nn3CC)ncc2c2cc(C(N)=O)cc(OCCCOC)c21 [Example S27, (E)-9-(4-(5-carbamoyl-2-(1-ethyl-3-methyl-1H-pyrazole-5-carboxamido)-7-(3-morpholinopropoxy)-1H-benzo [d]imidazol-1-yl)but-2-en-1-yl)-2-(1-ethyl-3-methyl-1H-pyrazol-5-yl)-8-(3-methoxypropoxy)-9H-pyrimido[4,5-b]indole-6-carboxamide] | ≤ 100 | < 200 | ≤ 50
CCn1nc(C)cc1C(=O)Nc1nc2cc(C(N)=O)cc(OCCOCCOCCC(=O)O)c2n1C/C=C/Cn1c2nc(-c3cc(C)nn3CC)ncc2c2cc(C(N)=O)cc(OCCCOC)c21 [Example S49, (E)-3-(2-(2-((5-carbamoyl-1-(4-(6-carbamoyl-2-(1-ethyl-3-methyl-1H-pyrazol-5-yl)-8-(3-methoxypropoxy)-9H-pyrimido[4,5-b]indol-9-yl)but-2-en-1-yl)-2-(1-ethyl-3-methyl-1H-pyrazole-5-carboxamido)-1H-benzo[d]imidazol-7-yl)oxy)ethoxy)ethoxy)propanoic acid] |  |  | ≤ 50
CCn1nc(C)cc1C(=O)Nc1nc2cc(C(N)=O)cc(C)c2n1C/C=C/Cn1c2nc(-c3cc(C)nn3CC)ncc2c2cc(C(N)=O)cc(OC)c21 [Example S10, (E)-9-(4-(5-carbamoyl-2-(1-ethyl-3-methyl-1H-pyrazole-5-carboxamido)-7-methyl-1H-benzo[d]imidazol-1-yl)but-2-enyl)-2-(1-ethyl-3-methyl-1H-pyrazol-5-yl)-8-methoxy-9H-pyrimido[4,5-b]indole-6-carboxamide] | ≤ 100 | < 200 | ≤ 50
CCn1nc(C)cc1C(=O)Nc1nc2cc(C(N)=O)cc(OCCCO)c2n1C/C=C/Cn1c2nc(-c3cc(C)nn3CC)ncc2c2cc(C(N)=O)cc(OCCCNC(=O)OCCC(=O)O)c21 [Example S54, (E)-3-(3-(6-carbamoyl-9-(4-(5-carbamoyl-2-(1-ethyl-3-methyl-1H-pyrazole-5-carboxamido)-7-(3-hydroxypropoxy)-1H-benzo[d]imidazol-1-yl)but-2-enyl)-2-(1-ethyl-3-methyl-1H-pyrazol-5-yl)-9H-pyrimido[4,5-b]indol-8-yloxy)propylcarbamoyloxy)propanoic acid] |  |  | ≤ 50
CCn1nc(C)cc1C(=O)Nc1nc2cc(C(N)=O)cc(OCCN3CCOCC3)c2n1C/C=C/Cn1c2nc(-c3cc(C)nn3CC)ncc2c2cc(C(N)=O)cc(OCCCOC)c21 [Example S43, (E)-9-(4-(5-carbamoyl-2-(1-ethyl-3-methyl-1H-pyrazole-5-carboxamido)-7-(2-morpholinoethoxy)-1H-benzo[d]imidazol-1-yl)but-2-en-1-yl)-2-(1-ethyl-3-methyl-1H-pyrazol-5-yl)-8-(3-methoxypropoxy)-9H-pyrimido[4,5-b]indole-6-carboxamide] |  |  | 50 to 200
CCn1nc(C)cc1C(=O)Nc1nc2cc(C(N)=O)cc(OCCCOC)c2n1C/C=C/Cn1c2nc(-c3cc(C)nn3CC)ncc2c2cc(C(N)=O)cc(OCCOCCOCCC(=O)O)c21 [Example S58, (E)-3-(2-(2-(6-carbamoyl-9-(4-(5-carbamoyl-2-(1-ethyl-3-methyl-1H-pyrazole-5-carboxamido)-7-(3-methoxypropoxy)-1H-benzo[d]imidazol-1-yl)but-2-enyl)-2-(1-ethyl-3-methyl-1H-pyrazol-5-yl)-9H-pyrimido[4,5-b]indol-8-yloxy)ethoxy)ethoxy)propanoic acid] |  |  | 50 to 200
CCn1nc(C)cc1C(=O)Nc1nc2cc(C(N)=O)cc(OCCCOC)c2n1C/C=C/Cn1c2nc(-c3cc(C)nn3CC)ncc2c2cc(C(N)=O)cc(OCCCNC(=O)OCCC(=O)O)c21 [Example S56, (E)-3-(3-(6-carbamoyl-9-(4-(5-carbamoyl-2-(1-ethyl-3-methyl-1H-pyrazole-5-carboxamido)-7-(3-methoxypropoxy)-1H-benzo[d]imidazol-1-yl)but-2-enyl)-2-(1-ethyl-3-methyl-1H-pyrazol-5-yl)-9H-pyrimido[4,5-b]indol-8-yloxy)propylcarbamoyloxy)propanoic acid] |  |  | ≤ 50
CCn1nc(C)cc1C(=O)Nc1nc2cc(C(N)=O)cc(OC)c2n1C/C=C/Cn1c(NC(=O)c2cc(C)nn2CC)nc2cc(C(N)=O)cc(OCCCNC(=O)CCN)c21 [Example S32, (E)-7-(3-(3-aminopropanamido)propoxy)-1-(4-(5-carbamoyl-2-(1-ethyl-3-methyl-1H-pyrazole-5-carboxamido)-7-methoxy-1H-benzo[d]imidazol-1-yl)but-2-en-1-yl)-2-(1-ethyl-3-methyl-1H-pyrazole-5-carboxamido)-1H-benzo [d]imidazole-5-carboxamide] | ≤ 100 |  | 
CCn1nc(C)cc1C(=O)Nc1nc2cc(C(N)=O)cc(OCCCN)c2n1C/C=C/Cn1c2nc(-c3cc(C)nn3CC)ncc2c2cc(C(N)=O)cc(OCCCOC)c21 [Example S38, (E)-9-(4-(7-(3-aminopropoxy)-5-carbamoyl-2-(1-ethyl-3-methyl-1H-pyrazole-5-carboxamido)-1H-benzo[d]imidazol-1-yl)but-2-en-1-yl)-2-(1-ethyl-3-methyl-1H-pyrazol-5-yl)-8-(3-methoxypropoxy)-9H-pyrimido[4,5-b]indole-6-carboxamide] |  |  | 500 to 1000
CCn1nc(C)cc1C(=O)Nc1nc2cc(C(N)=O)cc(C)c2n1C/C=C/Cn1c2ccc(C(N)=O)cc2c2cnc(-c3cc(C)nn3CC)c(C#N)c21 [Example S26, (E)-5-(4-(5-carbamoyl-2-(1-ethyl-3-methyl-1H-pyrazole-5-carboxamido)-7-methyl-1H-benzo[d]imidazol-1-yl)but-2-en-1-yl)-4-cyano-3-(1-ethyl-3-methyl-1H-pyrazol-5-yl)-5H-pyrido[4,3-b]indole-8-carboxamide] | 500 to 1000 | < 1000 | 500 to 1000
CCn1nc(C)cc1C(=O)Nc1nc2cc(C(N)=O)cc(OCCCNS(=O)(=O)CCCC(=O)O)c2n1C/C=C/Cn1c2nc(-c3cc(C)nn3CC)ncc2c2cc(C(N)=O)cc(OCCCOC)c21 [Example S50, (E)-4-(N-(3-((5-carbamoyl-1-(4-(6-carbamoyl-2-(1-ethyl-3-methyl-1H-pyrazol-5-yl)-8-(3-methoxypropoxy)-9H-pyrimido[4,5-b]indol-9-yl)but-2-en-1-yl)-2-(1-ethyl-3-methyl-1H-pyrazole-5-carboxamido)-1H-benzo[d]imidazol-7-yl)oxy)propyl)sulfamoyl)butanoic acid] |  |  | ≤ 50
CCn1nc(C)cc1C(=O)Nc1nc2cc(C(N)=O)cc(C)c2n1C/C=C/Cn1c2nc(-c3cc(C)nn3CC)ncc2c2cc(C(N)=O)cc(OCCCN3CCOCC3)c21 [Example S11, (E)-9-(4-(5-carbamoyl-2-(1-ethyl-3-methyl-1H-pyrazole-5-carboxamido)-7-methyl-1H-benzo[d]imidazol-1-yl)but-2-enyl)-2-(1-ethyl-3-methyl-1H-pyrazol-5-yl)-8-(3-morpholinopropoxy)-9H-pyrimido[4,5-b]indole-6-carboxamide] | ≤ 100 | < 200 | ≤ 50
CCn1nc(C)cc1C(=O)Nc1nc2cc(C(N)=O)cc(C)c2n1C/C=C/Cn1c2ccc(C(N)=O)cc2c2cnc(-c3cc(C)nn3CC)nc21 [Example S1, (E)-9-(4-(5-carbamoyl-2-(1-ethyl-3-methyl-1H-pyrazole-5-carboxamido)-7-methyl-1H-benzo[d]imidazol-1-yl)but-2-enyl)-2-(1-ethyl-3-methyl-1H-pyrazol-5-yl)-9H-pyrimido[4,5-b]indole-6-carboxamide] | 500 to 1000 | < 1000 | 50 to 200
CCn1nc(C)cc1C(=O)Nc1nc2cc(C(N)=O)cc(C)c2n1C/C=C/Cn1c2nc(-c3cc(C)nn3CC)ccc2c2cc(C(N)=O)cc(OC)c21 [Example S14, (E)-9-(4-(5-carbamoyl-2-(1-ethyl-3-methyl-1H-pyrazole-5-carboxamido)-7-methyl-1H-benzo[d]imidazol-1-yl)but-2-enyl)-2-(1-ethyl-3-methyl-1H-pyrazol-5-yl)-8-methoxy-9H-pyrido[2,3-b]indole-6-carboxamide] | ≤ 100 | < 200 | ≤ 50
CCn1nc(C)cc1C(=O)Nc1nc2cc(C(N)=O)c3ccoc3c2n1C/C=C/Cn1c2nc(-c3cc(C)nn3CC)ncc2c2cc(C(N)=O)cc(OC)c21 [Example S67, (E)-1-(4-(6-carbamoyl-2-(1-ethyl-3-methyl-1H-pyrazol-5-yl)-8-methoxy-9H-pyrimido[4,5-b]indol-9-yl)but-2-en-1-yl)-2-(1-ethyl-3-methyl-1H-pyrazole-5-carboxamido)-1H-benzofuro[6,7-d]imidazole-5-carboxamide] | ≤ 100 |  | 
CCn1nc(C)cc1C(=O)Nc1nc2cc(C(N)=O)cc(C)c2n1C/C=C/Cn1c2ccc(C(N)=O)cc2c2cnc(-c3cc(C)nn3C)nc21 [Example S3, (E)-9-(4-(5-carbamoyl-2-(1-ethyl-3-methyl-1H-pyrazole-5-carboxamido)-7-methyl-1H-benzo[d]imidazol-1-yl)but-2-enyl)-2-(1,3-dimethyl-1H-pyrazol-5-yl)-9H-pyrimido[4,5-b]indole-6-carboxamide] | 100 to 500 | < 1000 | 
CCn1nc(C)cc1C(=O)Nc1nc2cc(C(N)=O)cc(C)c2n1C/C=C/Cn1c2ccc(C(N)=O)cc2c2cnc(-c3cc(C)nn3CC)c(F)c21 [Example S23, (E)-5-(4-(5-carbamoyl-2-(1-ethyl-3-methyl-1H-pyrazole-5-carboxamido)-7-methyl-1H-benzo[d]imidazol-1-yl)but-2-en-1-yl)-3-(1-ethyl-3-methyl-1H-pyrazol-5-yl)-4-fluoro-5H-pyrido[4,3-b]indole-8-carboxamide] | 100 to 500 | < 200 | 50 to 200
